Where a SMILES comes first, the peptide text is derived from it. Where no end group is shown, it is not given here. [ ]: non-standard residue; d: D form. The star is where a group is joined. X2 = NC(=NC(=O)c1nc(Cl)c(N)nc1N)NCCCCN1C(=O)CC(*)C1=O; Aib = CC(C)(N)C(=O)O; Ahx = NCCCCCC(=O)O
What was measured:
[1] = tested on: sheep model of cystic fibrosis; assay: Tracheal mucous velocity (TMV) in sheep model of cystic fibrosis; format: in vivo
Method: The conjugates of the present invention were tested for their ability to increase lung mucociliary clearance in a sheep model of cystic fibrosis.
The peptide conjugates of the present invention were tested in vivo using a sheep model of cystic fibrosis as described in Scott et al., Am J. Resp. Crit. Care Med., 2017; 196 (6): 734-744; and Sabater et al., PLOS ONE, 2019; 14 (11): e0224764, hereby incorporated by reference in their entirety.
Briefly, tracheal mucous velocity (TMV) was determined in sheep by insufflation of radio-opaque Teflon disks into the trachea and measuring the movement of the disks over a 1 minute period by scintigraphy.
Intubated sheep were treated with the CFTR inhibitor INH-172 by nebulization, which caused a reduction in the mucus transport rate in the trachea. Once a baseline inhibited TMV was obtained at 4 hours following CFTR inhibition, then ENaC inhibitor conjugate (Conj. 13) or control was nebulized into the sheep lung and TMV measurements were repeated hourly.

[2] = molecular target: T1, neutrophil elastase (Homo sapiens, UniProt P08246)
T1 sequence (P08246 30-267): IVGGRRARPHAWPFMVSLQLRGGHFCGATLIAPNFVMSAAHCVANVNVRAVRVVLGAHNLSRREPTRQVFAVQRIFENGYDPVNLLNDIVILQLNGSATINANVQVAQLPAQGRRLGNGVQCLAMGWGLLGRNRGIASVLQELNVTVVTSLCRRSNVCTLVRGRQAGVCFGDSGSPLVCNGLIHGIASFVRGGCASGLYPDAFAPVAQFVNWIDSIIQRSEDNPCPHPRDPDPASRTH
Method: Experiments were therefore performed to determine the stability of the conjugates to protease cleavage.
The conjugates of the invention were incubated in PBS or PBS and 0.1 mg neutrophil elastase for 60 minutes at 37° C. The conjugates were then run on HPLC to determine their stability against protease cleavage.

[3] = molecular target: T2, ENaC (Homo sapiens, UniProt P37088+P51168+P51170); assay: ENaC inhibition in NHBE cell monolayers, Ussing epithelial voltage clamp (short circuit current); format: cell-based; conditions: NHBE cell monolayers, Ussing chamber, apical addition, 35±2° C.; read-out: IC50 for the ENaC inhibition
T2 construct: Primary NHBE cells were isolated from bronchi of normal healthy patients; endogenous in cells; host or cells: primary normal human bronchial epithelial (NHBE) cells, differentiated at air-liquid interface
T2 sequence (P37088 1-669): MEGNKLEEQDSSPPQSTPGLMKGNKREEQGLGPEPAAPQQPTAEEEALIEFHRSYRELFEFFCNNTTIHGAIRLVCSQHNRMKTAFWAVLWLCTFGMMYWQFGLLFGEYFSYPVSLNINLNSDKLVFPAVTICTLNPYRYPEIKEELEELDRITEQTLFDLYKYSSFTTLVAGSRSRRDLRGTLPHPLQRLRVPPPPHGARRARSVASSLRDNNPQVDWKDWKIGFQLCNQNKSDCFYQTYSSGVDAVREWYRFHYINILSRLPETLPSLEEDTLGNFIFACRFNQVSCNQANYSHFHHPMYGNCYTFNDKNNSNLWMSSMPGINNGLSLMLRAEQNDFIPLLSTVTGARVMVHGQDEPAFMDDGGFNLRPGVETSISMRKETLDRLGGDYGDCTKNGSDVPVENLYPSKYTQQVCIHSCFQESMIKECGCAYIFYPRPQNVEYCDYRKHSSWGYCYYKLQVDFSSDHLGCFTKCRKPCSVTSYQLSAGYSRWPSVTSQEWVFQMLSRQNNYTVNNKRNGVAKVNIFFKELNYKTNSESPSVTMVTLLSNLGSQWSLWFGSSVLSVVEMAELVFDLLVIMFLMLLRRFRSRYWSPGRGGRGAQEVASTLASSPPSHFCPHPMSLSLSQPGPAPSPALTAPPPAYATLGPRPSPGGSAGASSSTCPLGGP
T2 sequence (P51168 1-640): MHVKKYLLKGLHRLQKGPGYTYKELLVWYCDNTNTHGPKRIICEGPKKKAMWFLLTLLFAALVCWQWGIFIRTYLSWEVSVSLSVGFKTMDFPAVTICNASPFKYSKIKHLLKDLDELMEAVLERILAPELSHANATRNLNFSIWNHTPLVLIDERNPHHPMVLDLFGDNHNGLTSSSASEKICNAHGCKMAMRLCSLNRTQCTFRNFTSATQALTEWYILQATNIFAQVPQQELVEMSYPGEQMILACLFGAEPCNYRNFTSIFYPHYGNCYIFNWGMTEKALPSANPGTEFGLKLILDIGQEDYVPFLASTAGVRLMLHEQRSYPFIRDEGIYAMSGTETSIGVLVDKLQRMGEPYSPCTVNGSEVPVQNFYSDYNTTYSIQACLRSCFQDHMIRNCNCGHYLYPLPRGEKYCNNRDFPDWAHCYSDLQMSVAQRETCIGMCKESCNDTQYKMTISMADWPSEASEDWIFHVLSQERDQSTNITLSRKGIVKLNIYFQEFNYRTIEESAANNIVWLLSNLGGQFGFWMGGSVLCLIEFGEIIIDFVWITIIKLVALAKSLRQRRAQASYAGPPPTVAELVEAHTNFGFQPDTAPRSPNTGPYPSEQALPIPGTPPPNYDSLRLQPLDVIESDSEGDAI
T2 sequence (P51170 1-649): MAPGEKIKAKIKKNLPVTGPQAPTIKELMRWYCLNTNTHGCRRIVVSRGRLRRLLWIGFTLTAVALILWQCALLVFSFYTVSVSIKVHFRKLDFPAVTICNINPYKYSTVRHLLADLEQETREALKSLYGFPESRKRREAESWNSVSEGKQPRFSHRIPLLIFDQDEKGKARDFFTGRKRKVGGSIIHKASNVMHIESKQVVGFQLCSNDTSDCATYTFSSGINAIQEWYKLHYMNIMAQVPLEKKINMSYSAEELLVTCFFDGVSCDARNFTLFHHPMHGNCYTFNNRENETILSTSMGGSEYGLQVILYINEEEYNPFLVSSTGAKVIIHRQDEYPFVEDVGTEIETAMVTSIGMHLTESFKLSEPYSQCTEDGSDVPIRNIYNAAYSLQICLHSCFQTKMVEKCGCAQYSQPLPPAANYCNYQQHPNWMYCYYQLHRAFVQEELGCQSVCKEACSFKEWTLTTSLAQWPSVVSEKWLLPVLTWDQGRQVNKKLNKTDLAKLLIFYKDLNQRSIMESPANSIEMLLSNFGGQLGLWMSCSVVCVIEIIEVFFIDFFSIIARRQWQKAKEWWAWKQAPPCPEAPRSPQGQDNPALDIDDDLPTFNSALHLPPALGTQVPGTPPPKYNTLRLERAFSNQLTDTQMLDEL
Method: The objective of this study was to measure the ability of the illustrative conjugates to modulate ion transport function of ENAC in normal human bronchial epithelial (NHBE) cell monolayers. Sodium transport function of ENAC expressed in NHBE monolayers was evaluated using an Ussing epithelial voltage clamp apparatus. See, Hirsh et al., J. Pharmacol. Exp. Ther. 2008; 325:77-88, hereby incorporated by reference in its entirety.
Primary NHBE cells were isolated from bronchi of normal healthy patients, expanded in Lonza media (BEGM™ BulletKit™), and plated on Snapwell™ filters to form an epithelium. Cells on Snapwell™ inserts were grown for at least 21 days in Vertex Differentiation media and exposed to an air-liquid interface to promote differentiation. At least one day before the assay, mucous overlaying the apical surface was removed from the inserts by incubating the apical surface for about 30 minutes with ≥200 μL of differentiation media followed by aspiration of the mucous film and media.
The NHBE cell monolayers grown on Snapwell™ filter inserts were transferred to Physiologic Instruments Ussing recording chambers (Physiologic Instruments, Inc., San Diego, CA) and superfused with HB-PS. One or more 6-channel or 8-channel Physiologic Instruments VCC MC6 or VCC MC8 epithelial voltage clamps were used in combination to record short circuit current (ISC) from up to 24 inserts simultaneously. Air was used to operate the bubble lifts to rapidly circulate solutions in each Ussing chamber half and to aerate the monolayers.
Inserts were voltage clamped at 0 m V to record the ISC. Bumetanide (20 μM) was added to the basolateral side of all inserts. Test conjugates prepared as DMSO (Sigma-Aldrich) stocks were added cumulatively and sequentially to the apical Ussing chamber halves with at least 3 minutes between each addition.
Time and volume matched additions of DMSO to the basolateral side of the test conjugate treated inserts and both sides of the vehicle treated inserts was made to maintain osmotic balance across the epithelia. Transepithelial resistance was monitored with small voltage steps. The assay was performed at 35±2° C.
ENaC current at each test conjugate concentration was calculated as the peak current change produced by each test conjugate treated insert minus the mean current change produced by the corresponding DMSO additions to time-matched vehicle controls inserts. Cumulative difference data was fit to a Hill equation of the form: […]
Where IEnaC is the ISC peak difference current measured at each test conjugate concentration [Test].

Molecule | fold better than SPX-101 at restoring TMV in vivo ([1]; 0.25 mg/kg vs SPX-101 2 mg/kg) | restoration of TMV ([1]; nebulized 0.125, 0.25 and 0.5 mg/kg after CFTR inhibitor INH-172, vs 0.9% saline, FIG. 5) | dose needed to restore TMV ([1]; nebulized, sheep) [mg/kg] | period over which restoration of TMV was sustained ([1]; nebulized, sheep, vs 0.9% saline) [h] | susceptibility to cleavage by neutrophil elastase [2] | IC50 [3] [nM]
Ac-(AmilCC1)-K-(Aib)-SHLRKLRKRLL-NH2 (K[Aib]SHLRKLRKRLL-NH2; not fully specified (N-terminus); printed as Ac-(AmilCC1)-K-(Aib)-SHLRKLRKRLL-NH2; also: amiloride click conjugate (AmilCC1) at residue 1) [Conjugate 13] | approximately 8 fold | dose-dependent restoration of TMV | 0.25 | 8 | drastically reduced susceptibility to cleavage by neutrophil elastase | –
CC(=O)N[C@@H](CSC1CC(=O)N(CCCCNC(N)=NC(=O)c2nc(Cl)c(N)nc2N)C1=O)C(=O)NCCCCCC(=O)N[C@H](C(=O)N[C@@H](CO)C(=O)N[C@@H](CCCCN)C(=O)N[C@@H](CCCNC(=N)N)C(=O)N[C@@H](CCCNC(=N)N)C(N)=O)C(C)C (stereo partly drawn) [Conjugate 12, Ac-(AmilTC-C)-Ahx-VSKRR-NH2] (Ac-C(X2)[Ahx]VSKRR-NH2) | – | – | – | – | – | 80

Source: patent US20240374585A1, “EPITHELIAL SODIUM CHANNEL (ENAC) INHIBITOR CONJUGATES AND METHODS FOR USE THEREOF” (Lung Therapeutics, Inc., priority 2021, published 2024)
